{
  "source": "patent US20220340564A1",
  "about": "“ANTIBACTERIAL COMPOUNDS” (Janssen Sciences Ireland Unlimited Company, priority 2019, published 2022)",
  "key": {"[1]": {"assay": "in vitro", "conditions": "rat, hepatocytes"}, "[2]": {"assay": "in vitro", "conditions": "human"}, "[3]": {"system": "Cyp 3A4", "assay": "Cyp 3A4 induction", "conditions": "at 1 μM"}, "[4]": {"assay": "in vitro", "conditions": "mouse"}, "[5]": {"assay": "in vitro", "conditions": "human, hepatocytes"}, "[6]": {"target": "Kinase panel", "assay": "Kinase panel", "format": "biochemical"}, "[7]": {"assay": "in vivo", "conditions": "rat, po, 5 mg/kg", "description": "Oral Bioavailability of Compound 161 in Rat\nCompound 161 was administer PO in rat (5 mg/kg, PEG4000 (sol.), 0.5 w/v Methocel (susp.) and the following results were obtained for the solution and suspension."}, "[8]": {"system": "Mycobacterium tuberculosis strain EH4.0 expressing green-fluorescent protein (GFP)", "assay": "microbe, parasite or virus in culture", "format": "cell-based", "conditions": "168 h, read-out: pIC50 (converted)"}, "[9]": {"system": "Ca Ch", "assay": "CVS panel, Ca channel", "description": "(§1) The compounds of the invention/examples may have advantages associated with in vitro potency, kill kinetics (i.e. bactericidal effect) in vitro, PK properties, food effect, safety/toxicity (including liver toxicity, coagulation, […]), metabolic stability, Ames II negativity, MNT negativity, aqueous based solubility (and ability to formulate) and/or cardiovascular effect e.g. on animals (e.g. anesthetized guinea pig). The data below that was generated/calculated may be obtained using standard methods/assays, for instance that are available in the literature or which may be performed by a supplier (e.g. Microsomal Stability Assay—Cyprotex, Mitochondrial toxicity (Glu/Gal) assay —Cyprotex, as well as literature CYP cocktail inhibition assays). In some instances, GSH was measured (reactive metabolites, glucuronidation) to observe if a dihydrodiol is observed by LCMS (fragmentation ions), which would correspond to a dihydroxylation on the core heterocycle."}, "[10]": {"assay": "AMES II", "format": "cell-based", "description": "as §1"}, "[11]": {"assay": "Mitochondrial toxicity (Glu/Gal) assay", "format": "cell-based", "description": "as §1"}, "[12]": {"conditions": "in vivo"}, "[13]": {"system": "Na Ch", "assay": "CVS panel, Na channel"}, "[14]": {"target": "hERGdof (Homo sapiens, UniProt Q12809)", "sequence (Q12809 whole entry)": "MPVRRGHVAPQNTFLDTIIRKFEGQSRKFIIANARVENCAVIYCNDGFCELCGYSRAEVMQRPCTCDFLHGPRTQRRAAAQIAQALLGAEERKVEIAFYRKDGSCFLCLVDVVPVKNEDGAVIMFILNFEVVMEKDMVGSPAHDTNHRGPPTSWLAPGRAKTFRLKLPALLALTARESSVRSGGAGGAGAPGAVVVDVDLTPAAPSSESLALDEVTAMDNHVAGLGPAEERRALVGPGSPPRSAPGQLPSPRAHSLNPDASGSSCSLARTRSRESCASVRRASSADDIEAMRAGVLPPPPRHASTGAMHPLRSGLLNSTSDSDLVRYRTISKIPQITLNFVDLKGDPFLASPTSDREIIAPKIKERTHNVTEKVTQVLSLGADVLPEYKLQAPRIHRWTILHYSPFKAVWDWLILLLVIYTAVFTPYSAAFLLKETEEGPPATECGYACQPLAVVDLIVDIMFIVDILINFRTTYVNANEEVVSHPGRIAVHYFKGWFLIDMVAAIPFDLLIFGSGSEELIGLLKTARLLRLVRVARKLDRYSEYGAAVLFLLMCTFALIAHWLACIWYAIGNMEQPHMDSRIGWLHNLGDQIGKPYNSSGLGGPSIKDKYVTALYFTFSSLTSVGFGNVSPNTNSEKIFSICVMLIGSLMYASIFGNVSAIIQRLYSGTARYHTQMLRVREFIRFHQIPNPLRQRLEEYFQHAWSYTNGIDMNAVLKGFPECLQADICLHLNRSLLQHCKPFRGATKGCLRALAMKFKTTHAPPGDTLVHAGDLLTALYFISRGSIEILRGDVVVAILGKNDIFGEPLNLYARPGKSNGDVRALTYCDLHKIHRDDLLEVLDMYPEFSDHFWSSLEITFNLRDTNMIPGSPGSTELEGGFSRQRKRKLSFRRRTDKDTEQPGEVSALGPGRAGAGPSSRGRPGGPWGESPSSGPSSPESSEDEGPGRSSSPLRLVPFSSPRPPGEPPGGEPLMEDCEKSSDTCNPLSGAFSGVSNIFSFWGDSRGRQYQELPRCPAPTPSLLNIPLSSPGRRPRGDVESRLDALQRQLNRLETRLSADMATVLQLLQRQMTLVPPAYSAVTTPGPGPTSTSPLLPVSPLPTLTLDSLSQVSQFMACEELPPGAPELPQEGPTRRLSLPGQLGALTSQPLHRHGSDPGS", "assay": "CVS panel, hERGdof", "format": "binding", "conditions": "read-out: CVS hERGdof, IC50"}, "[15]": {"assay": "in vitro", "conditions": "dog, hepatocytes"}, "[16]": {"assay": "physchem", "conditions": "thermodynamic from solid"}, "[17]": {"assay": "in vitro", "conditions": "mouse, hepatocytes"}, "[18]": {"system": "Cyp-450 (cocktail, isoforms not named)", "assay": "Cocktail Cyp-450 inhibition", "format": "in vitro ADME", "description": "as §1"}, "[19]": {"system": "M. tuberculosis H37Rv", "conditions": "M. tuberculosis H37Rv inside macrophages; J. Medicinal Chemistry, 2014, 57 (12), pp 5293-5305; cited from earlier work"}},
  "data": [
    {"smiles": "CCc1nc2ncc(C)cn2c1C(=O)NCc1ccc(N2CCN(S(=O)(=O)C(F)(F)F)C=N2)c(F)c1", "note": "[Compound 161]", "values": [
      {"measurement": "hepatocyte CLint", "setting": "[1]", "value": 19, "unit": "µL/min/1e6 cells"},
      {"measurement": "fraction unbound", "setting": "[2]", "value": 0.015},
      {"measurement": "Cyp 3A4 induction (% control)", "setting": "[3]", "value": 3.0, "unit": "% control"},
      {"measurement": "fraction unbound", "setting": "[4]", "value": 0.0245},
      {"measurement": "hepatocyte CLint", "setting": "[5]", "value": 6.7, "unit": "µL/min/1e6 cells"},
      {"measurement": "Kinase panel", "setting": "[6]", "value": "negative"},
      {"measurement": "AUC0-inf", "setting": "[7]", "value": "5610 ± 2747", "unit": "ng·h/mL"},
      {"measurement": "AUC0-inf", "setting": "[7]; AUC0-inf", "value": "10900 ± 1720", "unit": "ng·h/mL"},
      {"measurement": "Cmax", "setting": "[7]; Cmax", "value": "1230 ± 406", "unit": "ng/mL"},
      {"measurement": "Tmax", "setting": "[7]; Tmax", "value": 4, "unit": "h"},
      {"measurement": "half-life", "setting": "[7]; t1/2", "value": "3.55 ± 0.45", "unit": "h"},
      {"measurement": "IC50", "setting": "[8]", "value": 0.000776, "unit": "µM"},
      {"measurement": "IC50", "setting": "[9]", "value": "> 10", "unit": "µM"},
      {"measurement": "AMES II", "setting": "[10]", "value": "negative"},
      {"measurement": "Glu/Gal assay ratio (mitotoxicity)", "setting": "[11]", "value": "< 3"},
      {"measurement": "bioavailability (as shown in rodents)", "setting": "[12]", "value": "good bioavailaibility"},
      {"measurement": "IC50", "setting": "[13]", "value": "> 10", "unit": "µM"},
      {"measurement": "IC50", "setting": "[14]", "value": 15.8, "unit": "µM"},
      {"measurement": "hepatocyte CLint", "setting": "[15]", "value": 4.7, "unit": "µL/min/1e6 cells"},
      {"measurement": "solubility thermodynamic", "setting": "[16]; fassif", "value": 5, "unit": "µg/mL"},
      {"measurement": "solubility thermodynamic", "setting": "[16]; fessif", "value": 16, "unit": "µg/mL"},
      {"measurement": "solubility thermodynamic", "setting": "[16]; pH 2, simulated gastric fluid", "value": 33, "unit": "µg/mL"},
      {"measurement": "solubility thermodynamic", "setting": "[16]; pH 7, aqueous buffer", "value": "< 0.02", "unit": "µg/mL"},
      {"measurement": "hepatocyte CLint", "setting": "[17]", "value": 12, "unit": "µL/min/1e6 cells"},
      {"measurement": "IC50", "setting": "[18]", "value": "> 20", "unit": "µM"}
    ]},
    {"smiles": "CCc1nc2ccc(Cl)cn2c1C(=O)NCc1ccc(N2CCC(c3ccc(OC(F)(F)F)cc3)CC2)cc1", "note": "[Compound Q203]", "values": [
      {"measurement": "MIC50", "setting": "[19]", "value": 0.28, "unit": "nM"}
    ]}
  ]
}
